Experimental data from patent US20240299362A1, “EXOSOME PACKAGING AND TARGETED AUTOPHAGY” (University of Ottawa, priority 2017, published 2024).
No end group written: not given here. *: point of attachment. Biotin = O=C1N[C@H]2[C@H](CS[C@H]2CCCCC(=O)*)N1

Columns and labels:
V0-ATPase complex = target: T1, V0-ATPase complex (Mus musculus, UniProt P63082); assay: Lysotracker staining of cells with V0-ATPase inhibitors; type: cell-based; details: MEF; 12 h treatment
T1 construct: endogenous in cells; MEF inferred)
Excerpt: If increased MVB acidification in Atg5^−/− cells causes the drop in exosome release, blocking acidification of MVB may promote exosome release.

Atg5^−/− MEF [1] = assay: Exosome production (dynamic light scattering, Western blot), Example 2; type: cell-based, mouse; details: BAF or ConA 12 h
Protocol: (§1) Exosomes were enriched by differential centrifugation as previously described (Thery et al., 2006). Briefly, MEF or MDA-MB-231 cells were cultured in media containing FBS depleted of exosomes by centrifugation at 100,000 g for 16 h (Thery et al., 2006). To purify exosomes supernatant from cell cultures was centrifuged at 400 g (7 min), 2000 g (10 min) and 10,000 g (30 min, SW32 rotor). At each step the supernatant was recovered. After centrifugation at 100,000 g (1 h 10 min, SW32 rotor) the supernatant was removed and the pellet was resuspended. The pellet was washed in PBS by a final centrifugation at 100,000 g (20 min, TLA100.3 rotor). The exosome-enriched pellet was re-suspended in PBS for further analyses.
(§2) Preparations of enriched exosomes were analyzed by dynamic light scattering on a Protein Solutions Dynapro Instrument using Dynamics V6 software. Data were acquired every 10 seconds at 4° C. and 10% laser power for at least 200 seconds per sample. The intensity (Cnt/s) and size (nm) were generated automatically by the instrument.
Preparations of enriched exosomes were analyzed using a Nanosight LM10 instrument with Nanoparticle Tracking Analysis software Version 2.3. Measurement temperature was 22° C. and time setting was 90 seconds. The analysis conditions were set as: Blur 3×3, Detection Threshold 3, Min Track Length 9, and Min Expected Size 30 nm. […]

Atg5^−/− MEF [2] = assay: Exosome production (nanoparticle tracking, dynamic light scattering, Western blot), Example 1; type: cell-based, mouse; details: Chloroquine 100 μM 16 h, NH4Cl 20 mM 30 min, Concanamycin, siRNA
Protocol: Exosomes were enriched by differential centrifugation as previously described (Thery et al., 2006). Briefly, cells were cultured in media containing 10% FBS previously depleted of exosomes by centrifugation at 100 000 g for 16 h (Thery et al., 2006). To purify exosomes, supernatant from cell cultures was centrifuged at 300 g (10 min), 2000 g (10 min) and 10,000 g (30 min, SW32 rotor). At each step the supernatant was recovered. After centrifugation at 100 000 g (1 h 10 min, SW32 rotor) the supernatant was removed and the pellet was resuspended. The pellet was washed in PBS by a final centrifugation at 100 000 g (20 min, TLA100.3 rotor). The exosome-enriched pellet was re-suspended in PBS for further analyses.
Preparations of enriched exosomes were analyzed using either a Nanosight (FIG. 1A,C) or a ParticleMetrix Zetaview Nanoparticle tracking instrument (all other graphs). […]
The Zeta View Nanoparticle Tracking instrument (ParticleMetrix) is calibrated for experiments following every instrument start-up. […] If the sample falls within the acceptable reading concentration range, video acquisition and analysis was performed using the following parameters. Acquisition Parameters: Sensitivity (85), Shutter speed (40), Frame rate per second (30), Resolution (Highest), Positions measured (11). […]
The analysis reports containing the particle size (nm) and concentration (particles/ml) were generated automatically. The particles between 45 nm and 105 nm were summed to quantify exosome-sized particles. In experiments in FIG. 5N,O measuring exosome production after treating cells with NH4Cl or Chloroquine for short time periods, background readings from exosome-depleted media alone were subtracted. […]

stress granules (G3BP1+) = assay: Stress granules remaining with scFv-LC3 fusion with or without mTOR inhibitor INK128; type: cell-based; details: arsenite 1 h, recovery 30 min, G3BP1+ staining
Protocol: Nucleic acids encoding the fusion constructs were stably transduced into cells using lentivirus to generate stable expression using the CMV promoter. Cells were cultured in Lonza Ultraculture medium for 24 h and exosomes were harvested by tangential flow filtration concentration and dialysis on a 750 kDa pore size. Exosomes were then incubated with target cells between 2-24 h. After this time point cells were lysed and levels of cytoplasmic TDP-43 were measured by western blot after elimination of nuclei. […] for 30 min and cells were fixed for immunofluorescence to measure the persistence of stress granules using antibodies targeting G3BP1, PABP or DDX3. The number of stress granules were compared to fusions like scFv VH7 with and without LC3. In some experiments cells were pre-treated for 2-24 h with mTOR inhibitors to induce autophagy.
Experiments were performed to assess whether elimination of anti-TDP-43 VH7 scFv targets by autophagy, triggered by scFv-LC3 fusion constructs, could be further enhanced by treatment with an autophagy-activating agent. In this example, mTOR inhibitor INK128 was used as the autophagy-activating agent.
Cells were transfected with scFv versus TDP-43 fused to LC3, and treated or not treated with the mTOR inhibitor INK128 to assess autophagy activation. […]

wild-type MEF = assay: Exosome production (dynamic light scattering, Western blot) with pp242; type: cell-based, mouse; details: pp242 1 μM
Protocol: as §1, §2

recombinant LC3 [3] = details: 10 nmoles peptide, 100 ng recombinant LC3
Protocol: (SEQ ID NO: 20). Fifteen μl of Dynabeads® MyOne™ Streptavidin T1 (Cat #65601, ThermoFisher) were washed with PBS, then 10 nmoles of biotinylated peptides and 100 ng of recombinant LC3 were added. The mixture was rotated at 4 C over night. The beads were then washed with PBS 3 times and collected for further western analysis.

recombinant LC3 [4] = details: competitive excess of peptide; cell lysate
Protocol: In brief, 0.5 μg of His-tagged recombinant LC3 (His-tag, Cat #ADI-APR-100-0200, Enzo Life Sciences) was rotated in 50 μl with 5 μl of His-tagged Dynabeads (Cat #10103D, Thermofisher) in a binding/wash buffer (50 mM Sodium Phosphate, pH 8.0, 150 mM NaCl, 0.01% Tween®-20, 0.5% Triton X-100) at room temperature (RT) for 10 min. Then 150 μl of binding/wash buffer containing 5% BSA was added to the tubes and rotated for 5 minutes. Tubes were placed on a magnet and supernatant discarded. Cell lysate (100 ul, 150 ug) collected in Pull-down Buffer (3.25 mM Sodium phosphate pH 7.4, 70 mM NaCl, 0.01% Tween®-20, 0.5% Triton X-100) was incubated on a roller for 10 min. Supernatant was discarded and beads were washed 4 times with 300 μl Binding/Wash Buffer. His-LC3 was eluted with 150 mM Imidazole, 50 mM Sodium phosphate pH 8.0, 300 mM NaCl, 0.01% Tween®-20 with gentle shaking for 5 min. Supernatants were separated from beads on a magnet. The median intensities of bands for p62, ATP6V1E1 and background were quantified over 3 independent experiments using ImageQuantTL (GE Healthcare).
Experiments with competitive peptides were performed as above, except 50 μmoles of peptide was added during incubation with cell lysate. […] (SEQ ID NO: 20).

exosomes = assay: Packaging of LC3 fusion proteins into exosomes (luciferase light, Western blot of exosomes); type: cell-based
Excerpt: FIG. 28 D and E show Western blots of exosomes transfected with Luciferase or Luciferase-LC3 fusion (D), or dsRed or dsRed-LC3 fusion (E). […] The scFv in this experiment was anti-TDP-43 VH7 antibody scFv. Detection of the fusion was by Western blot with anti-LC3 antibody or antibody vs. HA tag incorporated into the linker region in the fusion. […] In FIG. 29 C, expression of scFv-LC3 construct in cells was achieved using lentivirus. […] In FIG. 29 C, cells were expressing anti-TDP-43 antibody scFv clone Vh7. […] The inventors hypothesized that exosomes may deliver intrabody-LC3 chimeras with high efficiency to tissues like liver, small intestine and kidney (IV), and if injected (for example) into the spinal cord (as ASOs or AAV in patients in neurodegeneration), throughout the spinal cord and the brain. […]
Nucleic acids encoding the fusion constructs were stably transduced into cells using lentivirus to generate stable expression using the CMV promoter. […] After this time point cells were lysed and levels of cytoplasmic TDP-43 were measured by western blot after elimination of nuclei. […]
The data are for 3 scFv fused to LC3 derived from anti-TDP-43 VH7, anti-TDP-43 41D1, and anti-Tau 4E4. […] Cells were transduced with scFv-LC3 conjugates, and exosomes were purified from these and analyzed by Western blot. […]

T1 sequence (P51863 whole entry): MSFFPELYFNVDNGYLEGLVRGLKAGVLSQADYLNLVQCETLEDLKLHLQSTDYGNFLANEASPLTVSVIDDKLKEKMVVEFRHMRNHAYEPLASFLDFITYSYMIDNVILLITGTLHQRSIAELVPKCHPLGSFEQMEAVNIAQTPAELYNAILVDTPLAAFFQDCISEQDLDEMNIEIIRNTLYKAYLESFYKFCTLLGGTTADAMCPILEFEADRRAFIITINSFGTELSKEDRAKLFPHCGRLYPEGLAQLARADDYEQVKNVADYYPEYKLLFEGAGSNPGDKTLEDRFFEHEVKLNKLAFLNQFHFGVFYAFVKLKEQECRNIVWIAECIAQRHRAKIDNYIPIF
T1 sequence (Q9Z1G4 whole entry, further chain): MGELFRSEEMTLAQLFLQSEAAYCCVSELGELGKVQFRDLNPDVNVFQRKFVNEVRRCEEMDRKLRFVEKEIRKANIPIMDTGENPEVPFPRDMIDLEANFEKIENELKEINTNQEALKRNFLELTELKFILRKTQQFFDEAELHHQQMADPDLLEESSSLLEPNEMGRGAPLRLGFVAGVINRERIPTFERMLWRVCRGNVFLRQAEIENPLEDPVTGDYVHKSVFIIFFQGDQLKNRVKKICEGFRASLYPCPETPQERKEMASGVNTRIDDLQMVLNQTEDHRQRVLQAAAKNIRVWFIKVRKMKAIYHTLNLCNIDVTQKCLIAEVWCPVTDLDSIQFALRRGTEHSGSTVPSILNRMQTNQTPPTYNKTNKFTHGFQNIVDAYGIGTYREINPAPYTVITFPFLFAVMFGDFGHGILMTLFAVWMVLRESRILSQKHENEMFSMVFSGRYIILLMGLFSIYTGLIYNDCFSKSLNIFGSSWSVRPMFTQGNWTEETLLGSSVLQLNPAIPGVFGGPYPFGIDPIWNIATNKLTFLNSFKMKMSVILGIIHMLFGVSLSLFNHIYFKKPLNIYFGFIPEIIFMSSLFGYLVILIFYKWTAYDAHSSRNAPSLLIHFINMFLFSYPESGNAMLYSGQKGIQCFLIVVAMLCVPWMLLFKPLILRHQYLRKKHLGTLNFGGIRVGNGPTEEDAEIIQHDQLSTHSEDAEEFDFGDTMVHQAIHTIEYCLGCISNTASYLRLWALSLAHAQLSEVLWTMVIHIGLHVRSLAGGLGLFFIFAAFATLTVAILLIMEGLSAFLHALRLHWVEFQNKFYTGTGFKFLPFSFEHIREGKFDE
T1 sequence (Q91V37 whole entry, further chain): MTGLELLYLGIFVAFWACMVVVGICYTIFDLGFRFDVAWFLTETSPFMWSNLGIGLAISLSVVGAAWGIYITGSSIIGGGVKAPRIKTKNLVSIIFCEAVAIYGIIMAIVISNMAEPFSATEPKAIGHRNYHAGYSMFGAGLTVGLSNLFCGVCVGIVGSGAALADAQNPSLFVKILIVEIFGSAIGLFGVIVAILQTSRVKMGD
T1 sequence (P63082 whole entry): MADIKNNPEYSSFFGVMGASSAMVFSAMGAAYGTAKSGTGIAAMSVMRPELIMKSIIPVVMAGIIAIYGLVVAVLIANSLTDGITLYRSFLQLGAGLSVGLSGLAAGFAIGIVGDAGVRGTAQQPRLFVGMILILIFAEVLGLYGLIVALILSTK

**Q.** `CO/C1=C\C(C)=C\[C@@H](C)[C@@H](O)[C@@H](C)C/C(C)=C/C=C/[C@H](OC)[C@@H]([C@@H](C)[C@@H](O)[C@H](C)[C@@]2(O)C[C@@H](O)[C@H](C)[C@@H](C(C)C)O2)OC1=O` [Bafilomycin A1] was tested. Which “staining of cells with Lysotracker” value (V0-ATPase complex) did it give?
**A.** abrogated staining of cells with Lysotracker

**Q.** What about the “exosome production of Atg5^−/− cells” value (Atg5^−/− MEF [1]) of the same compound?
**A.** restored exosome production

**Q.** `CCN(CC)CCCC(C)Nc1ccnc2cc(Cl)ccc12` (centres unmarked) [Chloroquine] was tested. Which “exosome production in Atg5^−/− cells” value (Atg5^−/− MEF [2]) did it give?
**A.** rescued exosome production

**Q.** Which “% of stress granules remaining” value (stress granules (G3BP1+)) does the source give for `CC(C)n1nc(-c2ccc3oc(N)nc3c2)c2c(N)ncnc21` [INK128] here?
**A.** did not have a measureable effect

**Q.** For `Cl.N` [NH4Cl], which “exosome production in Atg5^−/− cells” value (Atg5^−/− MEF [2]) is on record?
**A.** rescued exosome production

**Q.** How did the exosome production (wild-type MEF) turn out when `CC(C)n1nc(-c2cc3cc(O)ccc3[nH]2)c2c(N)ncnc21` [pp242] was run?
**A.** increased exosome production

**Q.** Which “pulldown of recombinant LC3 by biotinylated peptide” value (“pulldown of recombinant LC3” below) (recombinant LC3 [3]) does the source give for “Biotin-RCRKAILPLQKA [control mutated peptide]” here?
**A.** bound at background levels

**Q.** For “Biotin-RCRKQDFPLVKA [putative ATP6V1E1 LIR motif peptide]”, which “competition of ATP6V1E1 pulldown by recombinant LC3” value (recombinant LC3 [4]) is on record?
**A.** did not affect binding

**Q.** And the “competition of p62 pulldown by recombinant LC3” value (recombinant LC3 [4])?
**A.** did not affect binding

**Q.** What about the “pulldown of recombinant LC3” value (recombinant LC3 [3]) of the same compound?
**A.** bound at background levels

**Q.** How did the “exosome production in Atg5^−/− cells” value (Atg5^−/− MEF [2]) turn out when Concanamycin A was run?
**A.** rescued exosome production

**Q.** What about the “staining of cells with Lysotracker” value (V0-ATPase complex) of the same compound?
**A.** abrogated staining of cells with Lysotracker

**Q.** What about the “exosome production of Atg5^−/− cells” value (Atg5^−/− MEF [1]) of the same compound?
**A.** restored exosome production

**Q.** With “HJ8.5-LC3a: anti-Tau scFv HJ8.5 fused via linker and HA tag to LC3a (SEQ ID NO: 57)” as the compound, how does the “packaging of construct into exosomes” value (exosomes) read?
**A.** packaged into exosomes

**Q.** Which “competition of ATP6V1E1 pulldown by recombinant LC3” value (recombinant LC3 [4]) does the source give for “biotin-SGGDDDWTHLSS [p62 LIR motif peptide]” here?
**A.** had no effect

**Q.** And the “competition of p62 pulldown by recombinant LC3” value (recombinant LC3 [4])?
**A.** competed with endogenous p62 binding

**Q.** What about the “pulldown of recombinant LC3” value (recombinant LC3 [3]) of the same compound?
**A.** pulled down recombinant LC3
